Measured values as given in patent US20250145633A1, “SUBSTITUTED FURANOPYRIMIDINE COMPOUNDS AS PDE1 INHIBITORS” (Dart NeuroScience, LLC, priority 2017, published 2025).
Where a name gives a salt, the structure may show the parent alone.

Target: human PDE1B enzyme (Homo sapiens (Human), UniProt Q01064)
Assay: IMAP TR-FRET PDE1B enzymatic assay
Type: biochemical
Conditions: negative log of half-maximal molar inhibitory concentration; 200 nM FAM-cAMP; values given as bins
Outline: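 Full-length GST-tagged human PDE1B (250 pg/well) in IMAP BSA buffer with 10 U/ml calmodulin and 2.5 mM CaCl2; compound pre-incubated 5 min at room temperature, then 200 nM (final) FAM-cAMP for 30 min. IMAP binding reagent/Tb added, 1 h; TR-FRET 520/490 ratio read. IC50 from sigmoidal dose-response fit.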

Compound | PDE1b (pIC50)
Cc1cnc(CNC(=O)c2c(C)oc3ncnc(NC4(C)CC4)c23)nc1 [Example 705, 6-Methyl-4-[(1-methylcyclopropyl)amino]-N-[(5-methylpyrimidin-2-yl)methyl]furo[2,3-d]pyrimidine-5-carboxamide] | >8
Cc1oc2ncnc(NC3(C)CC3)c2c1C(=O)N1CCc2c(nc(Cl)nc2NC(C)C)C1 [Example 789, 5-{2-Chloro-4-[(propan-2-yl)amino]-5H,6H,7H,8H-pyrido[3,4-d]pyrimidine-7-carbonyl}-6-methyl-N-(1-methylcyclopropyl)furo[2,3-d]pyrimidin-4-amine] | >8
Cc1oc2ncnc(NC3(C)CC3)c2c1C(=O)NCc1ccc(OC(F)F)cn1 [Example 59, N-{[5-(Difluoromethoxy)pyridin-2-yl]methyl}-6-methyl-4-[(1-methylcyclopropyl)amino]furo[2,3-d]pyrimidine-5-carboxamide] | >8
Cc1oc2ncnc(NC3(C)CC3)c2c1C(=O)N1CCc2c(OCCF)ccnc2C1 [Example 20, 5-[4-(2-Fluoroethoxy)-5,6,7,8-tetrahydro-1,7-naphthyridine-7-carbonyl]-6-methyl-N-(1-methylcyclopropyl)furo[2,3-d]pyrimidin-4-amine trifluoroacetate] | >8
Cc1oc2ncnc(NC3(C)CC3)c2c1C(=O)N1CCN(c2cccc(F)n2)CC1 [Example 154, 5-[4-(6-Fluoropyridin-2-yl)piperazine-1-carbonyl]-6-methyl-N-(1-methylcyclopropyl)furo[2,3-d]pyrimidin-4-amine] | >8

Same assay, conditions: negative log of half-maximal molar inhibitory concentration; 200 nM FAM-cAMP; values given as bins; read-out: PDE1b (pIC50) (converted)

Compound | IC50
Cc1oc2ncnc(NC3(C)CC3)c2c1C(=O)NCc1cnn(C)n1 [Example 740, 6-Methyl-N-[(2-methyl-2H-1,2,3-triazol-4-yl)methyl]-4-[(1-methylcyclopropyl)amino]furo[2,3-d]pyrimidine-5-carboxamide] | 10 to 100 nM
Cc1coc(CNC(=O)c2c(C)oc3ncnc(NC4(C)CC4)c23)n1 [Example 760, 6-Methyl-N-[(4-methyl-1,3-oxazol-2-yl)methyl]-4-[(1-methylcyclopropyl)amino]furo[2,3-d]pyrimidin-5-carboxamide] | 10 to 100 nM
Cc1oc2ncnc(NC3(C)CC3)c2c1C(=O)N(C)Cc1cccs1 [Example 224, N,6-Dimethyl-4-[(1-methylcyclopropyl)amino]-N-(thiophen-2-ylmethyl)furo[2,3-d]pyrimidine-5-carboxamide] | 10 to 100 nM
Cc1oc2ncnc(NC3(C)CC3)c2c1C(=O)NC1CCCc2cccnc21 (stereo not drawn) [Example 310, 6-Methyl-4-[(1-methylcyclopropyl)amino]-N-(5,6,7,8-tetrahydroquinolin-8-yl)furo[2,3-d]pyrimidine-5-carboxamide] | 100 to 1000 nM
Cc1oc2ncnc(NC3(C)CC3)c2c1C(=O)N1CCc2cccc(OCF)c2C1 [Example 766, 5-[8-(Fluoromethoxy)-1,2,3,4-tetrahydroisoquinoline-2-carbonyl]-6-methyl-N-(1-methylcyclopropyl)furo[2,3-d]pyrimidin-4-amine] | 10 to 100 nM
COc1ccc(CN(CCCO)C(=O)c2c(C)oc3ncnc(NC4(C)CC4)c23)cc1 [Example 573, N-(3-Hydroxypropyl)-N-[(4-methoxyphenyl)methyl]-6-methyl-4-[(1-methylcyclopropyl)amino]furo[2,3-d]pyrimidine-5-carboxamide] | 10 to 100 nM
Cc1nc(CNC(=O)c2c(C)oc3ncnc(NC4(C)CC4)c23)no1 [Example 461, 6-Methyl-N-[(5-methyl-1,2,4-oxadiazol-3-yl)methyl]-4-[(1-methylcyclopropyl)amino]furo[2,3-d]pyrimidine-5-carboxamide] | 10 to 100 nM
Cc1oc2ncnc(NC3(C)CC3)c2c1C(=O)Nc1cnn(C)c1C [Example 417, N-(1,5-Dimethyl-1H-pyrazol-4-yl)-6-methyl-4-[(1-methylcyclopropyl)amino]furo[2,3-d]pyrimidine-5-carboxamide] | 10 to 100 nM
C#CC(C)(C)NC(=O)c1c(C)oc2ncnc(NC3(C)CC3)c12 [Example 520, 6-Methyl-N-(2-methylbut-3-yn-2-yl)-4-[(1-methylcyclopropyl)amino]furo[2,3-d]pyrimidine-5-carboxamide] | 10 to 100 nM
Cc1oc2ncnc(NC3(C)CC3)c2c1C(=O)NCc1ccc(C#N)c(F)c1 [Example 87, N-[(4-Cyano-3-fluorophenyl)methyl]-6-methyl-4-[(1-methylcyclopropyl)amino]furo[2,3-d]pyrimidine-5-carboxamide] | 10 to 100 nM
Cc1oc2ncnc(NC3(C)CC3)c2c1C(=O)n1cc(C(C)C)cn1 [Example 404, 6-Methyl-N-(1-methylcyclopropyl)-5-[4-(propan-2-yl)-1H-pyrazole-1-carbonyl]furo[2,3-d]pyrimidin-4-amine] | 10 to 100 nM
Cc1oc2ncnc(NC3(C)CC3)c2c1C(=O)NCc1nc2cc(F)ccc2[nH]1 [Example 729, N-[(5-Fluoro-1H-1,3-benzodiazol-2-yl)methyl]-6-methyl-4-[(1-methylcyclopropyl)amino]furo[2,3-d]pyrimidine-5-carboxamide] | 10 to 100 nM
Cc1oc2ncnc(NC3(C)CC3)c2c1C(=O)NCc1ccc(C#N)cc1 [Example 52, N-[(4-Cyanophenyl)methyl]-6-methyl-4-[(1-methylcyclopropyl)amino]furo[2,3-d]pyrimidine-5-carboxamide] | 10 to 100 nM
Cc1oc2ncnc(NC3(C)CC3)c2c1C(=O)N1C[C@@H]2[C@H](C1)[C@H]2c1ccccc1 [Example 208, 6-Methyl-N-(1-methylcyclopropyl)-5-[(1R,5S,6S)-6-phenyl-azabicyclo[3.1.0]hexane-3-carbonyl]furo[2,3-d]pyrimidin-4-amine] | 10 to 100 nM
Cc1csc(CNC(=O)c2c(C)oc3ncnc(NC4(C)CC4)c23)n1 [Example 703, 6-Methyl-N-[(4-methyl-1,3-thiazol-2-yl)methyl]-4-[(1-methylcyclopropyl)amino]furo[2,3-d]pyrimidine-5-carboxamide] | 10 to 100 nM
COc1cccc(OC2CN(C(=O)c3c(C)oc4ncnc(NC5(C)CC5)c34)C2)c1 [Example 590, 5-[3-(3-Methoxyphenoxy)azetidine-1-carbonyl]-6-methyl-N-(1-methylcyclopropyl)furo[2,3-d]pyrimidin-4-amine] | < 10 nM
Cc1oc2ncnc(NC3(C)CC3)c2c1C(=O)NC1(C)CCC1 [Example 104, 6-Methyl-N-(1-methylcyclobutyl)-4-[(1-methylcyclopropyl)amino]furo[2,3-d]pyrimidine-5-carboxamide] | 10 to 100 nM
Cc1oc2ncnc(NC3(C)CC3)c2c1C(=O)NCc1cc(-c2ccc(F)cc2)on1 [Example 325, N-{[5-(4-Fluorophenyl)-1,2-oxazol-3-yl]methyl}-6-methyl-4-[(1-methylcyclopropyl)amino]furo[2,3-d]pyrimidine-5-carboxamide] | 10 to 100 nM
Cc1oc2ncnc(NC3(C)CC3)c2c1C(=O)NC1(CO)CC1 [Example 146, N-[1-(Hydroxymethyl)cyclopropyl]-6-methyl-4-[(1-methylcyclopropyl)amino]furo[2,3-d]pyrimidine-5-carboxamide] | 10 to 100 nM
Cc1oc2ncnc(NC3(C)CC3)c2c1C(=O)N1CCc2cccnc2C1 [Example 630, 6-Methyl-N-(1-methylcyclopropyl)-5-(5,6,7,8-tetrahydro-1,7-naphthyridine-7-carbonyl)furo[2,3-d]pyrimidin-4-amine] | 10 to 100 nM
Cc1ccnc(NC(=O)c2c(C)oc3ncnc(NC4(C)CC4)c23)c1 [Example 427, 6-Methyl-4-[(1-methylcyclopropyl)amino]-N-(4-methylpyridin-2-yl)furo[2,3-d]pyrimidine-5-carboxamide] | 100 to 1000 nM
CCOc1ccc(C(C)NC(=O)c2c(C)oc3ncnc(NC4(C)CC4)c23)cc1F (stereo not drawn) [Example 595, N-[1-(4-Ethoxy-3-fluorophenyl)ethyl]-6-methyl-4-[(1-methylcyclopropyl)amino]furo[2,3-d]pyrimidine-5-carboxamide] | 10 to 100 nM
Cc1oc2ncnc(NC3(C)CC3)c2c1C(=O)N1CCc2c(ncnc2C2CC2)C1 [Example 805, 5-{4-Cyclopropyl-5H,6H,7H,8H-pyrido[3,4-d]pyrimidine-7-carbonyl}-6-methyl-N-(1-methylcyclopropyl)furo[2,3-d]pyrimidin-4-amine] | 10 to 100 nM
Cc1oc2ncnc(NC3(C)CC3)c2c1C(=O)NC1CC(F)(F)C1 [Example 128, N-(3,3-Difluorocyclobutyl)-6-methyl-4-[(1-methylcyclopropyl)amino]furo[2,3-d]pyrimidine-5-carboxamide] | 100 to 1000 nM
Cc1oc2ncnc(NC3(C)CC3)c2c1C(=O)N1C[C@@H]2[C@H](C1)[C@H]2c1ccc(C(F)(F)F)cn1 [Example 65, 6-Methyl-N-(1-methylcyclopropyl)-5-[(1R,5S,6S)-6-[5-(trifluoromethyl)pyridin-2-yl]-3-azabicyclo[3.1.0]hexane-3-carbonyl]furo[2,3-d]pyrimidin-4-amine] | 100 to 1000 nM
Cc1oc2ncnc(NC3(C)CC3)c2c1C(=O)N(C)CCc1nc2cc(F)ccc2[nH]1 [Example 583, N-[2-(5-Fluoro-1H-1,3-benzodiazol-2-yl)ethyl]-N,6-dimethyl-4-[(1-methylcyclopropyl)amino]furo[2,3-d]pyrimidine-5-carboxamide] | 100 to 1000 nM
COc1ccc(CNC(=O)c2c(C)oc3ncnc(NC4(C)CC4)c23)nc1F [Example 678, N-[(6-Fluoro-5-methoxypyridin-2-yl)methyl]-6-methyl-4-[(1-methylcyclopropyl)amino]furo[2,3-d]pyrimidine-5-carboxamide] | 10 to 100 nM
Cc1ncc(CNC(=O)c2c(C)oc3ncnc(NC4(C)CC4)c23)cn1 [Example 679, 6-Methyl-4-[(1-methylcyclopropyl)amino]-N-[(2-methylpyrimidin-5-yl)methyl]furo[2,3-d]pyrimidine-5-carboxamide] | 10 to 100 nM
